Assay results reported in patent US8012987B2, “Indolo[2,1-b] quinazole-6,12-dione antimalarial compounds and methods of treating malaria therewith” (The United States of America as represented by the …, priority 1998, dated 2011).
Values after ≈ are worked out from the molar mass of the structure shown. Values joined by “and” are separate entries in the source; they are usually repeats but may differ in a detail not shown here. Equal values may be shown once. Read-outs that look alike come from different tables or passages of the source.

Columns and labels:
Type in all cases: cell-based
[1] = test system: Plasmodium falciparum clone Thai TM90C2B; assay: In vitro inhibition of [3H]hypoxanthine uptake, P. falciparum TM90C2B; conditions: values without parentheses: blood serum (footnote: blood plasma) replacing Albumax; for IC50: Plasmodium falciparum, TM90C2B
Description: (§1) The in vitro assays were conducted by using a modification of the semiautomated microdilution technique of Desjardins et al.^11 and Chulay et al.^12 Two strains of Plasmodium falciparum clones, from CDC Indochina III (W-2), CDC Sierra Leone I (D-6). […] They were derived by direct visualization and micromanipulation from patient isolates.^13 Test compounds were initially dissolved in DMSO and diluted 400-fold in RPMI 1640 culture medium supplemented with 25 mM Hepes, 32 mM HaHCO3, and 10% Albumax I® (GIBCO BRL, Grand Island, N.Y.). These solutions were subsequently serially diluted 2-fold with a Biomek 1000® (Beckman, Fullerton, Calif.) over 11 different concentrations. The parasites were exposed to serial dilutions of each compound for 48 h and incubated at 37° C. with 5% O2, 5% CO2, and 90% N2 prior to the addition of [^3H]hypoxanthine. After a further incubation of 18 h, parasite DNA was harvested from each microtiter well using Packard Filtermate 196 Harvester® (Meriden, Conn.) onto glass filters. Uptake of [^3H]hypoxanthine was measured with a Packard Topcount scintillation counter. […] This procedure was repeated with the test compounds initially dissolved in DMSO and diluted 400-fold in RPMI 1640 culture medium supplemented with 25 mM Hepes, 32 mM HaHCO3, and with blood serum replacing the 10% Albumax I® (see Table 1, figures without parentheses). The values without parentheses indicate culture in blood serum which more closely resemble conditions in a living animal.
(§2) Four strains of Plasmodium falciparum clones, from CDC Indochina III (W-2), CDC Sierra Leone I (D-6), Thai WR75-TM9, and Thai TM90C2B were utilized in susceptibility testing and the IC50 results appear in Table 1.

[2] = test system: Plasmodium falciparum clone CDC Indochina III (W-2); assay: In vitro inhibition of [3H]hypoxanthine uptake, P. falciparum W-2 clone; conditions: for IC50: Plasmodium falciparum, read-out: IC50 (W-2)
Description: (§3) The in vitro assays were conducted by using a modification of the semiautomated microdilution technique of Desjardins et al.^11 and Chulay et al.^12 Two strains of Plasmodium falciparum clones, from CDC Indochina III (W-2), CDC Sierra Leone I (D-6). […] These solutions were subsequently serially diluted 2-fold with a Biomek 1000® (Beckman, Fullerton, Calif.) over 11 different concentrations. The parasites were exposed to serial dilutions of each compound for 48 h and incubated at 37° C. with 5% O2, 5% CO2, and 90% N2 prior to the addition of [^3H]hypoxanthine. […] Uptake of [^3H]hypoxanthine was measured with a Packard Topcount scintillation counter. […] The values without parentheses indicate culture in blood serum which more closely resemble conditions in a living animal.
(§4) The numbers associated with both W2 and D6 refer to IC50 values and the units are ng/ml.

[3] = test system: Plasmodium falciparum clone CDC Sierra Leone I (D-6); assay: In vitro inhibition of [3H]hypoxanthine uptake, P. falciparum D-6 clone; conditions: for IC50: Plasmodium falciparum, read-out: IC50 (D-6)
Description: as §3, §4

[4] = test system: Plasmodium falciparum; assay: In vitro antimalarial activity against Plasmodium falciparum (strain not given); conditions: judged from the IC50 values of Table 1
Description: as §1, §2

[5] = test system: Plasmodium falciparum clone Thai WR75-TM9; assay: In vitro inhibition of [3H]hypoxanthine uptake, P. falciparum WR75-TM9; conditions: values without parentheses: blood serum (footnote: blood plasma) replacing Albumax; for IC50: Plasmodium falciparum
Description: as §1, §2

[6] = values in parentheses: culture medium with 10% Albumax I
[7] = values without parentheses: blood serum (footnote: blood plasma) replacing Albumax

| IC50 [1] [ng/mL] | IC50 [2, 6] [ng/mL] | IC50 [3, 6] [ng/mL] | IC50 [2, 7] [ng/mL] | IC50 [3, 7] [ng/mL] | IC50 [5] [ng/mL] | IC50 (WR75-TM9) [5] | IC50 (TM90C2B) [1] | IC50 (W-2) [2, 7] | IC50 (D-6) [3, 7] | Compound | effectiveness in treating/reducing malaria parasites as shown in Table 1 [4] |
| --- | --- | --- | --- | --- | --- | --- | --- | --- | --- | --- | --- |
| 41.1 (≈ 0.102 µM) | 1.79 (≈ 0.00443 µM) | 3.01 (≈ 0.00745 µM) |  |  |  |  |  |  |  | COc1cccc2c(=O)n3c(nc12)C(=O)c1cc(I)ccc1-3 [Example 27] |  |
| 16.4 (≈ 0.0585 µM) | 2.8 (≈ 0.00999 µM) | 4.9 (≈ 0.0175 µM) | 14.7 (≈ 0.0524 µM) | 22.1 (≈ 0.0787 µM) |  |  |  |  |  | Cc1ccc2nc3n(c(=O)c2c1)-c1ccc(F)cc1C3=O [Example 11] |  |
| 29.8 (≈ 0.111 µM) | 2.33 (≈ 0.00869 µM) | 4.07 (≈ 0.0152 µM) | 15.3 (≈ 0.0572 µM) | 18.9 (≈ 0.0704 µM) |  |  |  |  |  | O=C1c2cc(F)ccc2N2C(=O)c3ccccc3NC12 (stereo not shown) [Example 4] |  |
| 1.76 (≈ 0.00504 µM) | 0.86 (≈ 0.00246 µM) | 0.93 (≈ 0.00266 µM) | 0.935 (≈ 0.00267 µM) | 1.97 (≈ 0.00561 µM) | 3.3 (≈ 0.00941 µM) |  |  |  |  | O=C1c2cc(OC(F)(F)F)ccc2-n2c1nc1cc(F)ccc1c2=O [Example 78] | most effective |
| 4.21 (≈ 0.0157 µM) | 0.84 (≈ 0.00314 µM) | 1.53 (≈ 0.00573 µM) | 2.12 (≈ 0.00795 µM) | 4.93 (≈ 0.0184 µM) | 9.93 (≈ 0.0372 µM) | 8.002 ng/mL (≈ 0.0299 µM) |  |  |  | O=C1c2cc(F)ccc2-n2c1nc1ncccc1c2=O [Example 17] |  |
| 1.16 (≈ 0.00349 µM) | 1.5 (≈ 0.0045 µM) | 3.16 (≈ 0.00948 µM) | 1.23 (≈ 0.00369 µM) | 0.946 (≈ 0.00284 µM) | 1.97 (≈ 0.0059 µM) |  |  |  |  | O=C1c2cc(OC(F)(F)F)ccc2-n2c1nc1ccncc1c2=O [Example 63] | most effective |
| 11 (≈ 0.034 µM) | 8.69 (≈ 0.0269 µM) | 13.2 (≈ 0.0409 µM) | 6.1 (≈ 0.0189 µM) |  | 24.4 (≈ 0.0754 µM) |  |  |  |  | COC(OC)c1ccc2c(c1)C(=O)c1nc3ccncc3c(=O)n1-2 [Example 70] |  |
| 7.78 (≈ 0.0242 µM) | 0.91 (≈ 0.00283 µM) | 2.01 (≈ 0.00626 µM) |  | 10.1 (≈ 0.0314 µM) |  |  |  |  |  | CCOC(=O)c1ccc2c(c1)C(=O)c1nc3ncccc3c(=O)n1-2 [Example 24] |  |
| 6.14 (≈ 0.0185 µM) | 3.93 (≈ 0.0118 µM) | 7.59 (≈ 0.0228 µM) | 15.6 (≈ 0.0469 µM) | 16.3 (≈ 0.0491 µM) | 30 (≈ 0.0904 µM) |  |  |  |  | C=CCO/N=C/c1ccc2c(c1)C(=O)c1nc3ccncc3c(=O)n1-2 [Example 90] |  |
| 9.74 (≈ 0.0343 µM) | 1.6 (≈ 0.00563 µM) | 4.9 (≈ 0.0172 µM) | 5.27 (≈ 0.0186 µM) | 8.54 (≈ 0.03 µM) | 12 (≈ 0.042 µM) | 16.249 ng/mL and 19.374 ng/mL | 16.914 ng/mL and 11.113 ng/mL | 5.787 ng/mL and 6.539 ng/mL | 14.239 ng/mL and 11.005 ng/mL | O=C1c2cc(F)ccc2-n2c1nc1cc(F)ccc1c2=O [Example 12] |  |
| 46 (≈ 0.14 µM) | 1.88 (≈ 0.00573 µM) | 3.57 (≈ 0.0109 µM) | 1.87 (≈ 0.0057 µM) | 3.57 (≈ 0.0109 µM) | 4.2 (≈ 0.0128 µM) |  |  |  |  | O=C1c2cc(Br)ccc2-n2c1nc1ccncc1c2=O [Example 39] |  |
| 2.08 (≈ 0.00579 µM) | 2.3 (≈ 0.00641 µM) | 3.6 (≈ 0.01 µM) | 1.91 (≈ 0.00532 µM) | 3.63 (≈ 0.0101 µM) |  |  |  |  |  | O=C1c2cc(Cl)ccc2-n2c1nc1cc(SCCO)ccc1c2=O [Example 86] |  |
| 12.9 (≈ 0.0464 µM) | 1.8 (≈ 0.00649 µM) | 3.11 (≈ 0.0112 µM) | 7.19 (≈ 0.0259 µM) | 15.1 (≈ 0.0546 µM) | 25.7 (≈ 0.0927 µM) |  |  |  |  | CCc1ccc2c(c1)C(=O)c1nc3ccncc3c(=O)n1-2 [Example 83] |  |
| 2.3 (≈ 0.00811 µM) | 0.43 (≈ 0.00152 µM) | 0.93 (≈ 0.00328 µM) | 1.28 (≈ 0.00451 µM) | 0.926 (≈ 0.00326 µM) |  |  |  |  |  | O=C1c2cc(Cl)ccc2-n2c1nc1ncccc1c2=O [Example 21] | most effective |
| 0.696 (≈ 0.0017 µM) | 3.51 (≈ 0.0086 µM) | 4.92 (≈ 0.012 µM) |  |  | 4.44 (≈ 0.0109 µM) |  |  |  |  | O=C1c2cc(OC(F)(F)F)ccc2-n2c1nc1cc(SCCO)ccc1c2=O [Example 87] |  |
|  | 0.728 (≈ 0.00242 µM) | 1.28 (≈ 0.00426 µM) |  |  | 14.2 (≈ 0.0471 µM) |  |  |  |  | O=C1c2cc(Cl)ccc2-n2c1nc1cc(F)ccc1c2=O [Example 45] |  |
| 4.46 (≈ 0.0133 µM) | 3.75 (≈ 0.0112 µM) | 5.4 (≈ 0.0161 µM) | 2.85 (≈ 0.00851 µM) | 4.89 (≈ 0.0146 µM) | 10.5 (≈ 0.0313 µM) |  |  |  |  | COC(c1ccc2c(c1)C(=O)c1nc3ccncc3c(=O)n1-2)C(C)C (stereo not shown) [Example 73] |  |
| 8.1 (≈ 0.0213 µM) | 2.73 (≈ 0.00717 µM) | 4.52 (≈ 0.0119 µM) |  |  | 17.3 (≈ 0.0454 µM) |  |  |  |  | CN1CCN(c2ccc3c(=O)n4c(nc3c2)C(=O)c2cc(Cl)ccc2-4)CC1 [Example 58] |  |
| 62.2 (≈ 0.198 µM) | 10.6 (≈ 0.0337 µM) | 20.3 (≈ 0.0647 µM) | 28.9 (≈ 0.0921 µM) | 46.5 (≈ 0.148 µM) | 82.6 (≈ 0.263 µM) |  |  |  |  | N#CC(C#N)=c1c2cc(F)ccc2n2c(=O)c3ccccc3nc12 [Example 57] |  |
| 9.78 (≈ 0.0344 µM) | 1.58 (≈ 0.00556 µM) | 2.57 (≈ 0.00904 µM) | 8.14 (≈ 0.0286 µM) | 13.5 (≈ 0.0476 µM) |  |  |  |  |  | O=C1c2cc(F)ccc2-n2c1nc1c(F)cccc1c2=O [Example 19] |  |
|  | 1.8 (≈ 0.00676 µM) | 0.24 (≈ 0.000901 µM) | 5.52 (≈ 0.0207 µM) | 9.06 (≈ 0.034 µM) |  | 9.941 ng/mL (≈ 0.0373 µM) |  | 4.977 ng/mL (≈ 0.0187 µM) | 10.137 ng/mL (≈ 0.0381 µM) | O=C1c2cc(F)ccc2-n2c1nc1ccccc1c2=O [Example 91] |  |
| 3.73 (≈ 0.011 µM) | 3.86 (≈ 0.0114 µM) | 7.86 (≈ 0.0232 µM) |  |  | 5.47 (≈ 0.0161 µM) |  |  |  |  | CN(CCO)c1ccc2c(=O)n3c(nc2c1)C(=O)c1cc(F)ccc1-3 [Example 68] |  |
| 24.4 (≈ 0.0686 µM) | 6.32 (≈ 0.0178 µM) | 7.61 (≈ 0.0214 µM) | 23 (≈ 0.0646 µM) | 42.6 (≈ 0.12 µM) | 66.4 (≈ 0.187 µM) |  |  |  |  | CN(CCO)c1ccc2c(=O)n3c(nc2c1)C(=O)c1cc(Cl)ccc1-3 [Example 46] |  |
| 42.5 (≈ 0.128 µM) | 3.52 (≈ 0.0106 µM) | 2.19 (≈ 0.00661 µM) | 59.8 (≈ 0.181 µM) | 79.6 (≈ 0.24 µM) | 127 (≈ 0.384 µM) |  |  |  |  | O=C1c2cc(C3CCCCC3)ccc2-n2c1nc1ccncc1c2=O [Example 74] |  |
| 5.48 (≈ 0.0184 µM) | 2.1 (≈ 0.00703 µM) | 7.2 (≈ 0.0241 µM) | 2.3 (≈ 0.00771 µM) | 11.2 (≈ 0.0376 µM) | 14.2 (≈ 0.0476 µM) |  |  |  |  | Cc1ncc2c(=O)n3c(nc2n1)C(=O)c1cc(Cl)ccc1-3 [Example 55] |  |
